Test results published in patent publication US6727066B2, “Genes expressed in treated human C3A liver cell cultures” (Incyte Corporation, priority 2000, dated 2004).

System: human C3A liver cell cultures
Test: Microarray differential expression of cDNAs in treated human C3A liver cell cultures
Type: cell-based
Conditions: change vs untreated C3A cells
Text: Incyte clones represent template sequences derived from the LIFESEQ GOLD assembled human sequence database (Incyte Genomics). In cases where more than one clone was available for a particular template, the 5′-most clone in the template was used on the microarray. The GENEALBUM GEM series 1-6 microarrays (Incyte Genomics) contain 52,616 array elements which represent 17,472 annotated clusters and 35,144 unannotated clusters. The HUMAN GENOME GEM series 1-3 microarrays (Incyte Genomics) contain 28,626 array elements which represent 10,068 annotated clusters and 18,558 unannotated clusters. For the UNIGEM series microarrays (Incyte Genomics), Incyte clones were mapped to non-redundant Unigene clusters (Unigene database (build 46), NCBI; Shuler (1997) J Mol Med 75:694-698), and the 5′ clone with the strongest BLAST alignment (at least 90% identity and 100 bp overlap) was chosen, verified, and used in the construction of the microarray. The UNIGEM V microarray (Incyte Genomics) contains 7075 array elements which represent 4610 annotated genes and 2,184 unannotated clusters.
To construct microarrays, cDNAs were amplified from bacterial cells using primers complementary to vector sequences flanking the cDNA insert. […] Amplified cDNAs were then purified using […]-400 columns (APB). Purified cDNAs were immobilized on polymer-coated glass slides. Glass microscope slides (Corning, Corning N.Y.) were cleaned by ultrasound in 0.1% SDS and acetone, with extensive distilled water washes between and after treatments. Glass slides were etched in 4% hydrofluoric acid (VWR Scientific Products, West Chester Pa.), washed thoroughly in distilled water, and coated with 0.05% aminopropyl silane (Sigma Aldrich) in 95% ethanol. Coated slides were cured in a 110° C. oven. cDNAs were applied to the coated glass substrate using a procedure described in U.S. Pat. No. 5,807,522. One microliter of the cDNA at an average concentration of 100 ng/ul was loaded into the open capillary printing element by a high-speed robotic apparatus which then deposited about 5 nl of cDNA per slide.
Microarrays were UV-crosslinked using a […] UV-crosslinker (Stratagene), and then washed at room temperature once in 0.2% SDS and three times in distilled water. Non-specific binding sites were blocked by incubation of microarrays in 0.2% casein in phosphate buffered saline (Tropix, Bedford Mass.) for 30 minutes at 60° C. followed by washes in 0.2% SDS and distilled water as before.
Early confluent C3A cells (ATTC, Manassas Va.) were treated with captopril (0.5, 2, 48, and 60 μg/ml) for 1, 3, and 6 hours. Early confluent C3A cells were treated with enalapril (0.5, 2, 48, and 60 μg/ml) for 1, 3, and 6 hours. Early confluent C3A cells were treated with LY294002 (0.5, 2, 15, and 25 μg/ml) for 1, 3, and 6 hours. Early confluent C3A cells were starved of insulin for 3 days prior to treatment, then treated with LY294002 (10 μM) for 2, 24, 36, and 72 hours in the presence of insulin. Early confluent C3A cells were treated with DES (1, 10, and 100 μM) for 1, 3, and 6 hours. Early confluent C3A cells were treated with dexamethasone (1 and 20 μM) for 0, 2, 6, and 24 hours. Early confluent C3A cells were treated with MCA (0.5 and 10 μM) for 2, 6, and 24 hours. In all cases mRNA from untreated early confluent cells were prepared in parallel as described below.
Cells were harvested and lysed in 1 ml of TRIZOL reagent (5×10^6 cells/ml; Life Technologies). The lysates were vortexed thoroughly and incubated at room temperature for 2-3 minutes and extracted with 0.5 ml chloroform. The extract was mixed, incubated at room temperature for 5 minutes, and centrifuged at 15,000 rpm for 15 minutes at 4° C. The aqueous layer was collected and an equal volume of isopropanol was added.

C[C@H](CS)C(=O)N1CCC[C@H]1C(=O)O [Captopril]
expression level of cDNA clone 63038: −3.16 | expression level of cDNA clone 118501: 4.36 | expression level of cDNA clone 160822: 2.5 | expression level of cDNA clone 211389: −2.52 | expression level of cDNA clone 630625: 2.81 | expression level of cDNA clone 1315663: −2.84 | expression level of cDNA clone 1368834: 2.47 | expression level of cDNA clone 1379063: −4 | expression level of cDNA clone 1381654: 1.57 | expression level of cDNA clone 1448718: −3.93 | expression level of cDNA clone 1519431: 2.36 | expression level of cDNA clone 1559756: 1.56 | expression level of cDNA clone 1619292: −4.3 | expression level of cDNA clone 1696224: 3.28 | expression level of cDNA clone 1711151: 3.05 | expression level of cDNA clone 1846209: 1.81 | expression level of cDNA clone 1930235: 3.25 | expression level of cDNA clone 1998269: 2.99 | expression level of cDNA clone 2055569: −3.33 | expression level of cDNA clone 2055867: −2.61 | expression level of cDNA clone 2123516: 3.89 | expression level of cDNA clone 2360580: −2.71 | expression level of cDNA clone 2446289: −2.15 | expression level of cDNA clone 2757583: 4.03 | expression level of cDNA clone 2769888: −2.01 | expression level of cDNA clone 2820337: 2.29 | expression level of cDNA clone 2884613: 2.46 | expression level of cDNA clone 2912637: −2.38 | expression level of cDNA clone 2921991: −5.21 | expression level of cDNA clone 2933775: 5.14 | expression level of cDNA clone 3225977: 2.89 | expression level of cDNA clone 3240708: 2.02 | expression level of cDNA clone 3381870: 2.62 | expression level of cDNA clone 3679667: −2.09 | expression level of cDNA clone 3815422: −3.78 | expression level of cDNA clone 4107126: 2.88

CCOC(=O)C(C)(C)Oc1ccc(Cl)cc1 [Clofibrate]
expression level of cDNA clone 63038: −3.95 | expression level of cDNA clone 86390: −2.83 | expression level of cDNA clone 118501: 4.87 | expression level of cDNA clone 280932: −2.8 | expression level of cDNA clone 341884: −2.32 | expression level of cDNA clone 348143: 2.11 | expression level of cDNA clone 407032: −3.05 | expression level of cDNA clone 460779: 2.26 | expression level of cDNA clone 630625: 2.53 | expression level of cDNA clone 758192: 3.11 | expression level of cDNA clone 818192: 2.87 | expression level of cDNA clone 1308112: 2.19 | expression level of cDNA clone 1315663: −3.18 | expression level of cDNA clone 1379063: −2.38 | expression level of cDNA clone 1448718: −2.95 | expression level of cDNA clone 1464613: −2.39 | expression level of cDNA clone 1511658: −3.56 | expression level of cDNA clone 1519683: −2.12 | expression level of cDNA clone 1559665: −4.058 | expression level of cDNA clone 1619292: −3.07 | expression level of cDNA clone 1696224: 11.91 | expression level of cDNA clone 1705208: 4.2 | expression level of cDNA clone 1711151: 2.4 | expression level of cDNA clone 1838114: −2.65 | expression level of cDNA clone 1845046: −2.5 | expression level of cDNA clone 1846463: 3.62 | expression level of cDNA clone 1890791: 2.7 | expression level of cDNA clone 1920215: −2.59 | expression level of cDNA clone 1922468: 3.03 | expression level of cDNA clone 1926883: 2.94 | expression level of cDNA clone 1930235: 2.73 | expression level of cDNA clone 1958226: −2.52 | expression level of cDNA clone 1966517: −2.8 | expression level of cDNA clone 1969563: 3.78 | expression level of cDNA clone 1998269: 2.7 | expression level of cDNA clone 2042056: 2.5 | expression level of cDNA clone 2055569: −2.76 | expression level of cDNA clone 2123516: 8.29 | expression level of cDNA clone 2273944: 2.48 | expression level of cDNA clone 2278688: −2.37 | expression level of cDNA clone 2352645: 3.77 | expression level of cDNA clone 2365335: −2.67 | expression level of cDNA clone 2382192: −2.54 | expression level of cDNA clone 2470485: −2.45 | expression level of cDNA clone 2740665: −2.54 | expression level of cDNA clone 2757583: 2.8 | expression level of cDNA clone 2769888: −2.79 | expression level of cDNA clone 2884613: 2.54 | expression level of cDNA clone 2890336: −2.38 | expression level of cDNA clone 2921991: −3.1 | expression level of cDNA clone 2933775: 4 | expression level of cDNA clone 2957205: 2.94 | expression level of cDNA clone 2999855: 2.4 | expression level of cDNA clone 3038508: 2.57 | expression level of cDNA clone 3136857: −3.24 | expression level of cDNA clone 3222802: 2.71 | expression level of cDNA clone 3380034: −3.15 | expression level of cDNA clone 3494714: −2.53 | expression level of cDNA clone 4066764: −2.3 | expression level of cDNA clone 4087621: −3.55 | expression level of cDNA clone 4110976: 2.18 | expression level of cDNA clone 4246966: 8.12 | expression level of cDNA clone 4287327: −3.47 | expression level of cDNA clone 4721130: 4.25 | expression level of cDNA clone 4795635: −2.38 | expression level of cDNA clone 5047895: −2.44 | expression level of cDNA clone 5077219: −2.63 | expression level of cDNA clone 5398014: −2.67 | expression level of cDNA clone 5398701: −3.55 | expression level of cDNA clone 5541949: 2.38

CC/C(=C(/CC)c1ccc(O)cc1)c1ccc(O)cc1 [DES, Diethylstilbestrol]
expression level of cDNA clone 60123: 2.6 | expression level of cDNA clone 172023: 2.85 | expression level of cDNA clone 437481: 2.24 | expression level of cDNA clone 443991: 2.62 | expression level of cDNA clone 510056: 2.73 | expression level of cDNA clone 891322: 3.81 | expression level of cDNA clone 970905: 2.25 | expression level of cDNA clone 1272483: 2.51 | expression level of cDNA clone 1326255: −2.7 | expression level of cDNA clone 1956982: −2.13 | expression level of cDNA clone 2055867: 2.97 | expression level of cDNA clone 2241825: −2.39 | expression level of cDNA clone 2311213: −2.34 | expression level of cDNA clone 2545486: −2.49 | expression level of cDNA clone 2550767: 2.1 | expression level of cDNA clone 2956444: 2.1 | expression level of cDNA clone 3222802: 2.4 | expression level of cDNA clone 4019706: 2.99 | expression level of cDNA clone 4287327: 2.66 | expression level of cDNA clone 4715924: −2.21 | expression level of cDNA clone 5293028: −2.3 | expression level of cDNA clone 5399371: −2.63 | expression level of cDNA clone 293477 (table row r18): 2.83 | expression level of cDNA clone 293477 (table row r23): 2
